Assay results published in article PMC5219024, “New acetylenic derivatives of betulin and betulone, synthesis and cytotoxic activity” (Medicinal Chemistry Research, 2016).
Converted amounts (≈) assume the structure as drawn.

What was measured:
[1] = tested on: HL-60 (human promyelocytic leukemia); assay: Antiproliferative assay in vitro (MTT), HL-60; format: cell-based; conditions: for IC50: Homo sapiens, HL-60 cancer cell line, 96 h exposure, read-out: Cytotoxic activity IC50, HL-60
Procedure: (§1) The tested cell lines were obtained from the American Type Culture Collection (Rockville, Maryland, USA) and maintained at the Cell Culture Collection of the Institute of Immunology and Experimental Therapy (Wrocław, Poland). The cells were seeded in 96-well plates (Sarstedt, USA) at a density of 10^4 cells per well in 100 µL of culture medium overnight. […] The normal mouse fibroblasts BALB3T3 was cultured in Dulbecco’s modified Eagle’s medium (Sigma-Aldrich, Chemie GmbH, Steinheim, Germany) supplemented with 2 mM glutamine (Sigma-Aldrich, Chemie GmbH, Steinheim, Germany) and 10 % fetal calf serum FBS (Sigma-Aldrich, Chemie GmbH, Steinheim, Germany). The all culture media were supplemented with streptomycin (100 µg/mL) and penicillin (100 U/mL) (both antibiotics from Polfa, Tarchomin, Poland). The cell cultures were maintained at 37 °C in humid atmosphere saturated with 5 % CO2. The MTT assay was used for the cytotoxicity screening against leukemia cells growing in suspension culture. This assay was performed after 96 h of the leukemia cells to varying concentrations (ranging from 1 to 100 µg/mL) of the tested substances. The derivatives of betulin were dissolved in 10 % DMSO to concentration of 1 mg/mL, and next diluted in culture medium to reach the required concentrations. […] During the last 3–4 h of incubation 20 µl of MTT solution were added to each well (MTT: 3-(4,5-dimethylthiazol-2-yl)-2,5-diphenyl tetrazolium bromide; stock solution: 5 mg/mL). The pale yellow MTT is reduced to a navy blue formazan in the mitochondria of living cells. At the end of incubation time, 80 µL of the lysing mixture was added to each well (lysing mixture: 225 mL dimethylformamide, 67.5 g sodium dodecyl sulfate and 275 mL of distilled water). After 24 h are formed the crystals of formazan, which are insoluble in aqueous solutions. The formazan crystals had been dissolved. The optical densities were read on a Multiskan RC photometer at 570 nm wavelength. The compounds in given concentration were examined in triplicates in each experiment which was repeated 3–5 times. The results of cytotoxic activity in vitro were expressed as an IC50 in µg/mL.

[2] = tested on: T47D (human breast cancer); assay: Antiproliferative assay in vitro (SRB), T47D; format: cell-based; conditions: human T47D, 96 h exposure, 1 to 100 µg/mL, Neg = negative in the concentration used; for IC50: read-out: Cytotoxic activity IC50, T47D
Procedure: (§2) The tested cell lines were obtained from the American Type Culture Collection (Rockville, Maryland, USA) and maintained at the Cell Culture Collection of the Institute of Immunology and Experimental Therapy (Wrocław, Poland). The cells were seeded in 96-well plates (Sarstedt, USA) at a density of 10^4 cells per well in 100 µL of culture medium overnight. […] The normal mouse fibroblasts BALB3T3 was cultured in Dulbecco’s modified Eagle’s medium (Sigma-Aldrich, Chemie GmbH, Steinheim, Germany) supplemented with 2 mM glutamine (Sigma-Aldrich, Chemie GmbH, Steinheim, Germany) and 10 % fetal calf serum FBS (Sigma-Aldrich, Chemie GmbH, Steinheim, Germany). The all culture media were supplemented with streptomycin (100 µg/mL) and penicillin (100 U/mL) (both antibiotics from Polfa, Tarchomin, Poland). The cell cultures were maintained at 37 °C in humid atmosphere saturated with 5 % CO2. This technique as first was described by Skehan et al. in [1990]. The SRB assay was performed after 96 h exposure of the cultured cells to varying concentrations (ranging from 1 to 100 µg/mL) of the tested substances. The reported derivatives as well as betulin 1 were dissolved in 10 % dimethyl sulfoxide (DMSO) to concentration of 1 mg/mL, and next diluted in culture medium to reach the required concentrations. […] The cells fastened to the plastic were fixed mildly layering cold 50 % TCA (trichloroacetic acid, Aldrich-Chemie, Germany) on the top of the culture medium in each well. The plates were incubated at 4 °C for 1 h and then washed five times with tap water. The cells fixed with TCA were stained with 0.4 % sulforhodamine B (SRB, Sigma, Germany) dissolved in 1 % acetic acid (POCH, Gliwice, Poland) for 30 min. The unbound dye was removed by rinsing four times with 1 % acetic acid. The protein-bound dye was extracted with 10 mM unbuffered tris base (POCH, Gliwice, Poland) and then determined the optical density at 540 nm in a computer-interfaced, 96-well microtiter plate reader Multiscan RC photometer (Labsystems, Helsinki, Finland). The compounds in given concentration were examined in triplicates in each experiment which was repeated 3–5 times. The results of cytotoxic activity in vitro were expressed as an IC50 in µg/mL.

[3] = tested on: CCRF/CEM (human leukemia); assay: Antiproliferative assay in vitro (MTT), CCRF/CEM; format: cell-based; conditions: human CCRF/CEM, 96 h exposure, 1 to 100 µg/mL, Neg = negative in the concentration used; for IC50: read-out: Cytotoxic activity IC50, CCRF/CEM
Procedure: as §1

SW707 (human colorectal) = assay: Antiproliferative assay in vitro (SRB), SW707; format: cell-based; conditions: human SW707; 96 h exposure; 1 to 100 µg/mL; Neg = negative in the concentration used
Procedure: as §2

P388 (mouse leukemia) = assay: Antiproliferative assay in vitro (MTT), P388; format: cell-based; conditions: murine P388, 96 h exposure, 1 to 100 µg/mL, Neg = negative in the concentration used; for IC50: Mus musculus, read-out: Cytotoxic activity IC50, P388
Procedure: as §1

[4] = tested on: BALB3T3 normal mouse fibroblasts; assay: Antiproliferative assay in vitro (SRB), BALB3T3; format: cell-based; conditions: murine BALB3T3 normal fibroblasts; 96 h exposure; 1 to 100 µg/mL; Neg = negative in the concentration used
Procedure: as §2

Structure (SMILES) | IC50 [1] [µg/mL] | fold potent than betulin 1 against HL-60 ([1]; relative to betulin 1, HL-60) [fold] | melting point [°C] | Cytotoxic activity IC50, T47D [2] | Cytotoxic activity IC50, CCRF/CEM [3] | Cytotoxic activity IC50, SW707 (SW707 (human colorectal)) | Cytotoxic activity IC50, P388 (P388 (mouse leukemia)) | Cytotoxic activity IC50, BALB3T3 [4] | IC50 [2] [µg/mL] | IC50 [3] [µg/mL] | IC50 (P388 (mouse leukemia)) [µg/mL]
C#CC(=O)OC[C@]12CC[C@@H](C(=C)C)C1C1CCC3[C@@]4(C)CCC(=O)C(C)(C)C4CC[C@@]3(C)[C@]1(C)CC2 (stereo partly drawn) [Compound 17, 28-O-Propynoylbetulone] | 0.3 ± 0.06 (≈ 0.609 µM) | 24 | 93 to 96 | – | – | – | – | – | – | – | –
C=C(C)[C@@H]1CC[C@]2(COC(=O)C#CC3CC3)CC[C@]3(C)C(CCC4[C@@]5(C)CCC(=O)C(C)(C)C5CC[C@]43C)C12 (stereo partly drawn) [Compound 18, 28-O-(3-Cyclopropyl-2-propynoyl)betulone] | 33.9 ± 5.5 (≈ 63.6 µM) | – | 93 to 97 | – | – | – | – | – | – | – | –
C=C(C)[C@@H]1CC[C@]2(COC(=O)C#Cc3ccccc3)CC[C@]3(C)C(CCC4[C@@]5(C)CCC(=O)C(C)(C)C5CC[C@]43C)C12 (stereo partly drawn) [Compound 19, 28-O-Phenylpropynoylbetulone] | – | – | 82 to 85 | Neg | Neg | Neg | Neg | Neg | – | – | –
C=C(C)[C@@H]1CC[C@]2(COC(=O)C#CC)CC[C@]3(C)C(CCC4[C@@]5(C)CCC(=O)C(C)(C)C5CC[C@]43C)C12 (stereo partly drawn) [Compound 21, 28-O-(2-Butynoyl)betulone] | 29.5 ± 5.4 (≈ 58.2 µM) | – | 92 to 94 | – | – | – | – | – | – | – | –
C=C(C)[C@@H]1CC[C@]2(COC(=O)OCCC)CC[C@]3(C)C(CCC4[C@@]5(C)CCC(=O)C(C)(C)C5CC[C@]43C)C12 (stereo partly drawn) [Compound 22, 28-O-Propoxycarbonylbetulone] | 21.4 ± 2.1 (≈ 40.6 µM) | – | 76 to 78 | – | – | – | – | – | – | – | –
C=CCOC(=O)OC[C@]12CC[C@@H](C(=C)C)C1C1CCC3[C@@]4(C)CCC(=O)C(C)(C)C4CC[C@@]3(C)[C@]1(C)CC2 (stereo partly drawn) [Compound 23, 28-O-Allyloxycarbonylbetulone] | 28.4 ± 1.6 (≈ 54.1 µM) | – | 123 to 125 | – | – | – | – | – | – | – | –
C#CCOC(=O)OC[C@]12CC[C@@H](C(=C)C)C1C1CCC3[C@@]4(C)CCC(=O)C(C)(C)C4CC[C@@]3(C)[C@]1(C)CC2 (stereo partly drawn) [Compound 24, 28-O-Propargyloxycarbonylbetulone] | 11.6 ± 4.9 (≈ 22.2 µM) | – | 173 to 175 | – | – | Neg | – | Neg | 23.3 ± 3.5 (≈ 44.6 µM) | 18.7 ± 6.6 (≈ 35.8 µM) | 30.3 ± 11.8 (≈ 58 µM)
C#CCCOC(=O)OC[C@]12CC[C@@H](C(=C)C)C1C1CCC3[C@@]4(C)CCC(=O)C(C)(C)C4CC[C@@]3(C)[C@]1(C)CC2 (stereo partly drawn) [Compound 25, 28-O-(3-Butynyloxycarbonyl)betulone] | – | – | 81 to 84 | – | – | Neg | – | Neg | 29.8 ± 10.7 (≈ 55.5 µM) | 25.2 ± 4.6 (≈ 46.9 µM) | 3.8 ± 1.9 (≈ 7.08 µM)
C=C(C)[C@@H]1CC[C@]2(COC(=O)OCC#CC)CC[C@]3(C)C(CCC4[C@@]5(C)CCC(=O)C(C)(C)C5CC[C@]43C)C12 (stereo partly drawn) [Compound 26, 28-O-(2-Butynyloxycarbonyl)betulone] | – | – | 150 to 152 | – | – | Neg | – | Neg | 79.2 ± 5.2 (≈ 148 µM) | 47.6 ± 5.7 (≈ 88.7 µM) | 18.3 ± 12.9 (≈ 34.1 µM)
